Source: US20260158002A1, “APPLICATION OF COMPOSITION CONTAINING EDARAVONE AND DEXBORNEOL IN IMPROVING OR TREATING COGNITIVE IMPAIRMENT” (NEURODAWN PHARMACEUTICAL CO., LTD., priority 2021, published 2026)

Experiments:
primary cortical neurons = assay: Aβ1-42-induced primary cortical neuronal injury test (Luminescent Cell Viability Assay); assay type: cell-based, rat; conditions: single agent, pre-incubation 30 min before oligomerized Aβ1-42 50 μM, 24 h; edaravone 3.7 to 100 μM, dexborneol 1.2 to 100 μM; vs DMSO group
Description: A SD pregnant rat at 18 days of pregnancy was sacrificed by cervical dislocation, the uteruses of the rat were dissected, the brain of E18 fetal rat was taken out, the cerebral cortical tissue of the fetal rat was isolated into an ice-cold DMEM, the meninge and blood vessels were removed from the cortical tissue under a dissecting microscope, the cortical tissue was transferred to an ice-cold DMEM and minced (about 1 mm^3), and digested with trypsin at 37° C. for 10 min, the digestion was terminated with FBS, a Pasteur pipette was used to perform gentle pipetting and dispersing, and screening was then performed using a 200-mesh sieve. […] The cells were counted by a hemocytometer, diluted to 5×10^5 cells/ml with a complete medium, and seeded in a 96-well plate coated with PDL (100 μL/well) for culture. […]
The medium of the in vitro matured primary neurons was replaced with a complete medium containing different concentrations (1.2, 3.7, 11.1, 33.3, 100.0 μM) of edaravone (E), dexborneol (B) or an edaravone and dexborneol composition (EB), after incubation at 37° C. for 30 min, oligomerized Aβ1-42 (final concentration of 50 μM) was added, the culture was continued for 24 h, and the neuronal viability was tested. […] LUMbackground is the background reading of the cell-free medium well into which Luminescent Cell Viability Assay kit is added. […]

5×FAD transgenic mice [1] = assay: Water maze test in 5×FAD transgenic mice; assay type: in vivo, mouse; conditions: 5×FAD mice
Description: (§1) In the experiment, the animals were divided into 4 groups. Administration was performed on the mice in each group from 8 weeks of age. After 16 weeks of continuous daily administration, water maze and Y maze behavioral tests were performed. After the behavioral tests were completed, the animals were sacrificed, and brain slice electrophysiology and AD pathology within the brain were tested, including the test of Aβ plaques, biomarkers such as GFAP and Iba-1, p-Tau, etc.
(§2) 5×FAD: edaravone group: ten 5×FAD mice were given edaravone ( ? ®) 6 mg/kg via i.p. at a dose of 10.0 mL/kg once daily.
5×FAD: composition group: ten 5×FAD mice were given 7.5 mg/kg edaravone and dexborneol concentrated solution for injection ( ? ®) (edaravone:dexborneol=4:1, containing 6 mg/kg edaravone and 1.5 mg/kg dexborneol) at a dose of 10.0 ml/kg once daily.
Experiment preparation: A constant temperature pool (120 cm in inner diameter and 50 cm in height) of a water maze was filled with clear water. The water temperature was controlled at about 18° C.-22° C. The four apexes of the pool were selected and designated as “S”, “N”, “W” and “E”, respectively. The platform was placed in the “SW” direction and 1-2 cm below the water surface. Titanium dioxide was added to the water to make the water opaque milky white.
Parameter setting: the test time was set to 1 min, and the residence time of mice on the platform was set to 2 s.
Training: The first 5 days were for the training phase of the water maze, the mice were placed in the pool in four different orientations every day, and their trajectories before boarding the platform, as well as the travel and time in each quadrant were recorded.
Testing: Testing was performed on the first day after the training was completed. During the testing, the platform was removed, the testing time was 60 s, the mouse was placed in the NE orientation, and the number of times the mouse crossed the platform and the time in the platform quadrant during the testing were recorded.
(§3) Data were expressed as Mean±SEM. […]

5×FAD transgenic mice [2] = assay: Y maze test in 5×FAD transgenic mice; assay type: in vivo, mouse; conditions: 5×FAD mice; edaravone 6 mg/kg or composition 7.5 mg/kg i.p. once daily for 16 weeks
Description: as §1, §2
5×FAD: composition group: ten 5×FAD mice were given 7.5 mg/kg edaravone and dexborneol concentrated solution for injection ( ? ®) (edaravone:dexborneol=4:1, containing 6 mg/kg edaravone and 1.5 mg/kg dexborneol) at a dose of 10.0 ml/kg once daily. […]
Testing: After 1 h of training, the baffle was removed, the channel of the Y maze was wiped with alcohol to remove the odor of the previous mouse, the mouse to be tested was placed in the same position for 5 min and video recording was performed, and the number of times the mouse entered the newly opened arm as a percentage of the total number of times it entered the three arms was recorded in the test.
as §3

Aβ1-42 = Aβ1-42 (Homo sapiens, UniProt P05067); conditions: in vitro; concentration range of 0.156 to 5 μM; cited from earlier work
[3] = test system: tau P301L transgenic mouse model; conditions: tau P301L mice aged 9 to 10 months and 21 months; oral with drinking water 24 mg/kg/day for 3 consecutive months; cited from earlier work
[4] = edaravone 6 mg/kg or composition 7.5 mg/kg i.p. once daily for 16 weeks

Aβ1-42, sequence (P05067 672-713 limits assumed): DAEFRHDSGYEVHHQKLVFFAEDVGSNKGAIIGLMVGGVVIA

Compound: CC1=NN(c2ccccc2)C(=O)C1 [edaravone, 3-methyl-1-phenyl-2-pyrazolin-5-one]
- inhibiting Aβ-induced neurotoxicity, increasing the cell viability (primary cortical neurons): capable of inhibiting Aβ-induced neurotoxicity in a concentration-dependent manner
- number of times the mouse crossed the platform in platform withdrawal test, vs solvent control (5×FAD transgenic mice [1]; [4]): prolong the residence time in the target quadrant and the number of times the mouse crossed the platform
- residence time in the target quadrant in platform withdrawal test, vs solvent control (5×FAD transgenic mice [1]; [4]): prolong the residence time in the target quadrant
- escape latency in water maze hidden platform test, vs solvent control (5×FAD transgenic mice [1]; edaravone 6 mg/kg or composition 7.5 mg/kg i.p. once daily for 16 weeks from 8 weeks of age): could significantly shorten the escape latency
- number of times the mouse entered the newly opened arm in Y maze, vs solvent control (5×FAD transgenic mice [2]): could significantly increase the number of times the mouse entered the newly opened arm
- aggregation of Aβ1-42 monomer as Aβ fibrils and disaggregation of Aβ fibrils (Aβ1-42): capable of inhibiting the aggregation of Aβ1-42 monomer as Aβ fibrils and disaggregating Aβ fibrils in a concentration-dependent manner
- cognitive function in water maze test and novel object recognition test [3]: can significantly improve the cognitive function of the animals in water maze test and novel object recognition test
